One series has as its target T1, NS3h_1b (Hepatitis C virus genotype 1b, UniProt Q9WMX2).
T1 construct: truncated C-terminally His-tagged NS3 proteins lacking the N-terminal protease, called NS3h; His-tag (C); made in house
Nature of the series: ATPase assay without RNA. Format: biochemical, hepatitis C virus genotype 1b(con1). How it is done: A modified “malachite green” assay (Lanzetta, et al. (1979) Anal. Biochem. 100:95-97) was used to measure ATP hydrolysis. Fifty μL reactions contained 25 mM MOPS pH 6.5, 5 mM MgCl2, 2 mM ATP, 5 μg/mL BSA, 0.01% (v/v) TWEEN 20, 0.05 mM DTT, and poly(U) RNA (Saint Louis, Mo.) as indicated. Reactions were initiated by adding NS3h_1b(con1). Reactions were incubated for 15 minutes at 37° C. then stopped by mixing 40 μL of the reaction into 200 μL of the malachite green reagent (3 volumes 0.045% (w/v) malachite green, 1 volume 4.2% ammonium molybdate in 4N HCl, 0.05 volume of 20% TWEEN 20). […] Absorbance at 630 nm was proportional to the concentration of phosphate produced; free phosphate produced was measured against a standard curve.
A simple explanation for the ability of some of the primuline derivatives to inhibit helicase and protease with similar potency would be that the compounds acted by simply aggregating or denaturing the enzyme. To test for irreversible inhibition, NS3h was incubated with 100 μM of each compound, diluted and then assayed for its ability to unwind DNA under standard conditions. […] In a second test for a simple aggregation mechanism, each compound was tested for its ability to inhibit NS3-catalyzed ATP hydrolysis. ATP hydrolysis fuels the unwinding reaction and NS3 hydrolyzes ATP both in the presence and absence of DNA or RNA; nucleic acid stimulates NS3 catalyzed ATP hydrolysis about 50-fold. […] To test this hypothesis, ATPase assays were performed in the presence of various concentrations of each primuline derivative, under conditions similar to those used to monitor effects on DNA and RNA unwinding. Far more of each compound was needed to inhibit NS3-catalyzed ATP hydrolysis than was needed to inhibit the helicase activity, or, in some cases, NS3 protease activity (Table 11).

The next series concerns the target T2, scNS4A-NS3p (UniProt P26663).
T2 construct: fused on or other part: NS4A cofactor peptide, from the same polyprotein, fused to the NS3 protease fragment
Nature of the series: NS3 protease assay (ENZOLYTE 520), protease fragment. Type of series: biochemical, hepatitis C virus genotype 1b. Particulars: read-out: Protease ScNS4a-NS3p IC50 (μM) ± SD; one set of assays. How it is done: All oligonucleotides were purchased from Integrated DNA Technologies (IDT, Coralville, Iowa). Primuline derivatives were synthesized and purified as described herein. Three different NS3 proteins were used in this study. Two were truncated C-terminally His-tagged NS3 proteins lacking the N-terminal protease, called NS3h, the third was a full-length NS3 with the portion of NS4A needed for protease activation fused to its N-terminus, called scNS4A-NS3 (Howe, et al. (1999) Protein Sci. 8:1332-41), and the fourth was a 23 kDa scNS4A-NS3 protease fragment lacking the helicase domains, called scNS4A-NS3p (Protein One, Rockville, Md.). NS3h was expressed from two different HCV strains. NS3h_1b(con1) was from the con1 strain of genotype 1b (GENBANK accession AB114136), and NS3h_2a(JFH1) was from the JFH1 strain of HCV genotype 2a (GENBANK accession AJ238799). […] His-tagged recombinant NS3h_1b(con1), NS3h_2a(JFH1), and scNS4A-NS3 (also from genotype 1b(con1)) were expressed, and purified as previously described (Frick, et al. (2010) supra; Lam, et al. (2003) J. Virol. 77:3950-3961). The scNS4A-NS3p (genotype 1b) was from Protein One. A plasmid expressing NS3h from dengue virus strain 2 (NS3h_DV2)(GENBANK accession 2BMF) is known in the art (Xu, et al. (2005) J. Virol. 79:10278-10288), and used to express and purify NS3h_DV2 (Belon, et al. (2010) supra)
All NS3 protease assays were carried out using the 5-Carboxyfluorescein-labeled substrate from the AnaSpec. ENZOLYTE 520 Protease Assay Kit (AnaSpec, San Jose, Calif.). Each assay contained 5 nM scNS4A-NS3 or 50 nM scNS4A-NS3p, […], 5% DMSO and 1× Anaspec HCV protease assay buffer. Assays were carried out in a total volume of 20 μl in black 384-well plates with fluorescence at 520 nm measured using a BMG FLUOstar Omega fluorescence spectrophotometer. Reactions were performed with eight concentrations of a two-fold dilution series of each compound (in duplicate) starting at 100 μM.

A short description of series [1]: Aqueous solubility (direct UV kinetic). Format: physicochemical. The following applies: kinetic from dmso stock. How it is done:
Solubility analysis was performed using a direct UV kinetic solubility method in a 96-well format. All liquid dispense and transfer steps were performed with the FREEDOM EVO automated liquid handler (Tecan, US). Solubility measurements were performed in an aqueous buffer solution (PRISMA HT, pION Inc.) at pH 5.0, 6.2 and 7.4, in duplicate. Solubility measurements were also performed in 1×PBS pH 7.4, and in MOPS buffer pH 6.5. Samples were incubated at room temperature for a minimum of […] to achieve equilibrium, then filtered to remove any precipitate formed. The concentration of the compounds was measured by UV absorbance (250-498 nm) using the […] M200 (Tecan, US) and compared to the spectra of the precipitation-free reference solutions. Spectroscopically pure 1-Propanol (Sigma) was used as a cosolvent to suppress precipitation in the reference solutions. The solubility of each compound was determined using pSOL Evolution Plus software v3.2 (pION Inc) and was expressed as the concentration (μg/mL) of a solute in a saturated solution. Diclofenac Na (highly soluble) and Dipyridamole (poorly to moderately soluble) were used as standards. Standards and test compound stocks were made in 100% DMSO. […]

Setting [2] is: aqueous with cosolvent or surfactant or cyclodextrin, mock assay matrix (MOPS, TWEEN 20, 5% DMSO) at pH 6.5, read-out: solubility.

The text below walks through data of patent publication US9464064B2, “HCV helicase inhibitors and methods of use thereof” (University of Kansas, priority 2011, dated 2016).

Where two headings read alike, the source gives them in different places.

T1 sequence (Q9WMX2 1192-1657): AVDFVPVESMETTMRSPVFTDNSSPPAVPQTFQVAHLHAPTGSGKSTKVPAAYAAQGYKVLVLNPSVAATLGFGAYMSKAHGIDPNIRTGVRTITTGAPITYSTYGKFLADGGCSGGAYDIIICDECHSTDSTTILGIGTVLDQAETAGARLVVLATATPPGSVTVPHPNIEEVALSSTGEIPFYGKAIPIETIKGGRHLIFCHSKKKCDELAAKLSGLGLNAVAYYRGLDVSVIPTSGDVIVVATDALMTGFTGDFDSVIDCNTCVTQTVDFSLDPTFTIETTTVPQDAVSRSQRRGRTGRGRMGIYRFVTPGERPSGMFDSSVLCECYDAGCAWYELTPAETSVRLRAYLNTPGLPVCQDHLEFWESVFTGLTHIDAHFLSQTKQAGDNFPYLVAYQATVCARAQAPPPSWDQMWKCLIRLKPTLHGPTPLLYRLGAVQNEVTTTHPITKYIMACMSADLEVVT
T2 sequence (P26663 1027-1657): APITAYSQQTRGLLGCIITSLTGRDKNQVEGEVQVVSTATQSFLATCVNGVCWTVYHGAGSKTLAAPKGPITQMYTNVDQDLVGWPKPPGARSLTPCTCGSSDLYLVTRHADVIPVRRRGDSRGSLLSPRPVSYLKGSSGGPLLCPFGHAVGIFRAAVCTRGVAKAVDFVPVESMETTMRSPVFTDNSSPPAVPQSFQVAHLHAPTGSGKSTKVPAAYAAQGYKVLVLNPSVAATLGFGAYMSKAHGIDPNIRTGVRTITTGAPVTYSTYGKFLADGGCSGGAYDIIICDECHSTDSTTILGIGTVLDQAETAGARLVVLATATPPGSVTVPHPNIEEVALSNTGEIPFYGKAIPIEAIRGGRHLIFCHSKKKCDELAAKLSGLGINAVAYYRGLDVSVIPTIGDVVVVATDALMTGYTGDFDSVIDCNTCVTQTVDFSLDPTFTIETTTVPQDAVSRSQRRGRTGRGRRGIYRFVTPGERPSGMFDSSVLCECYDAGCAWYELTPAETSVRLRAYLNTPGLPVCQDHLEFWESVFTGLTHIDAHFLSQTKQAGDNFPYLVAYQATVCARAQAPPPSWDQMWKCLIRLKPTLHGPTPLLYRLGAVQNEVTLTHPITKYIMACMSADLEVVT

Consider `Cc1ccc2nc(-c3ccc4nc(-c5ccc(NC(=O)c6ccc(N)cc6)cc5)sc4c3)sc2c1S(=O)(=O)O` [Compound 6, 2′-(4-(4-aminobenzamido)phenyl)-6-methyl-[2,6′-bibenzo[d]thiazole]-7-sulfonic acid], for which the IC50 – broadly, the point on the concentration scale where inhibition reaches its midpoint – at NS3h_1b turned out to be 194 ± 30 µM.
Turning to `Cc1ccc2nc(-c3ccc4nc(-c5ccc(NC(=O)c6ccc(F)cc6)cc5)sc4c3)sc2c1S(=O)(=O)O.N` [Compound 7, 2′-(4-(4-fluorobenzamido)phenyl)-6-methyl-[2, bibenzo[d]thiazole]-7-sulfonic acid], the IC50 was greater than 100 µM on scNS4A-NS3p and 67 ± 30 µM against NS3h_1b. Besides, the solubility (commonly the concentration that dissolves in the medium under given conditions) in series [1] (setting [2]) was determined as 129 µM.
With `Cc1ccc2nc(-c3ccc4nc(-c5ccc(NC(=O)c6ccc(C(F)(F)F)cc6)cc5)sc4c3)sc2c1S(=O)(=O)O` [Compound 12, 6-methyl-2′-(4-(4-(trifluoromethyl)benzamido)phenyl)-[2,6′-bibenzo[d]thiazole]-7-sulfonic acid], the figures for the IC50 at scNS4A-NS3p and against NS3h_1b were 7 µM and 24 ± 5 µM, respectively.
For `Cc1ccc2nc(-c3ccc4nc(-c5ccc(NC(=O)c6ccc(C(C)(C)C)cc6)cc5)sc4c3)sc2c1S(=O)(=O)O` [Compound 13, 2′-(4-(4-(tert-butyl)benzamido)phenyl)-6-methyl-[2,6′-bibenzo[d]thiazole]-7-sulfonic acid], the IC50 at scNS4A-NS3p amounted to 93 µM; at NS3h_1b, 150 ± 21 µM.
In the same order, the values of `Cc1ccc2nc(-c3ccc4nc(-c5ccc(NC(=O)c6ccc(Br)cc6)cc5)sc4c3)sc2c1S(=O)(=O)O` [Compound 15, 2′-(4-(4-bromobenzamido)phenyl)-6-methyl-[2,6′-bibenzo[d]thiazole]-7-sulfonic acid] are 6.5 µM and 50 ± 4 µM.
Regarding `Cc1ccc2nc(-c3ccc4nc(-c5ccc(NC(=O)c6cccc(Cl)c6)cc5)sc4c3)sc2c1S(=O)(=O)O` [Compound 17, 2′-(4-(3-chlorobenzamido)phenyl)-6-methyl-[2,6′-bibenzo[d]thiazole]-7-sulfonic acid], the IC50 at scNS4A-NS3p came to 24 µM; against NS3h_1b, 74 ± 7 µM. For the same compound, the solubility in series [1] (1×PBS, pH 7.4, aqueous buffer, read-out: Aqueous Solubility, PBS) is 0.12 µg/mL; in series [1] (PRISMA HT aqueous buffer, aqueous buffer, pH 5.0, read-out: Aqueous Solubility, Prisma HT buffer), 36.7 µg/mL; in series [1] (PRISMA HT aqueous buffer, pH 6.2, aqueous buffer, read-out: Aqueous Solubility, Prisma HT buffer), greater than 60 µg/mL; in series [1] (PRISMA HT aqueous buffer, pH 7.4, aqueous buffer, read-out: Aqueous Solubility, Prisma HT buffer), greater than 60 µg/mL; in series [1] (setting [2]), 29.2 µM; in series [1] (mock assay matrix with TWEEN 20, 5% DMSO, pH 6.5, aqueous with cosolvent or surfactant or cyclodextrin, read-out: Aqueous Solubility, Assay Matrix) it was 17.8 µg/mL.
`Cc1ccc2nc(-c3ccc4nc(-c5ccc(NC(=O)c6ccc(Cl)c(Cl)c6)cc5)sc4c3)sc2c1S(=O)(=O)O` [Compound 18, 2′-(4-(3,4-dichlorobenzamido)phenyl)-6-methyl-[2,6′-bibenzo[d]thiazole]-7-sulfonic acid]: the IC50 stood at 6.4 µM on scNS4A-NS3p and 44 ± 12 µM on NS3h_1b. Besides, the solubility in series [1] (setting [2]) came to 2.6 µM.
In the same order, the values of `Cc1ccc2nc(-c3ccc4nc(-c5ccc(NC(=O)c6cc(C(F)(F)F)cc(C(F)(F)F)c6)cc5)sc4c3)sc2c1S(=O)(=O)O` [Compound 24, 2′-(4-(3,5-bis(trifluoromethyl)benzamido)phenyl)-6-methyl-[2,6′-bibenzo[d]thiazole]-7-sulfonic acid] are 7.6 µM, 141 ± 28 µM and 180 µM.
As to `Cc1ccc2nc(-c3ccc4nc(-c5ccc(NC(=O)c6cc(C(F)(F)F)ccc6F)cc5)sc4c3)sc2c1S(=O)(=O)O` [Compound 25, 2′-(4-(2-fluoro-5-(trifluoromethyl)benzamido)phenyl)-6-methyl-[2,6′-bibenzo[d]thiazole]-7-sulfonic acid], the results for the IC50 at scNS4A-NS3p and at NS3h_1b were greater than 100 µM and 61 ± 13 µM, respectively.
As to `Cc1ccc2nc(-c3ccc4nc(-c5ccc(NC(=O)c6cccnc6)cc5)sc4c3)sc2c1S(=O)(=O)O` [Compound 31, 6-methyl-2′-(4-(nicotinamido)phenyl)-[2,6′-bibenzo[d]thiazole]-7-sulfonic acid], the solubility in series [1] (aqueous buffer, MOPS buffer (25 mM MOPS, 1.25 mM MgCl2, 2% DMSO) at pH 6.5, read-out: solubility) was greater than 100 µM.
With `Cc1ccc2nc(-c3ccc4nc(-c5ccc(NC(=O)c6ccc7ccccc7c6)cc5)sc4c3)sc2c1S(=O)(=O)O` [Compound 33, 2′-(4-(2-naphthamido)phenyl)-6-methyl-[2,6′-bibenzo[d]thiazole]-7-sulfonic acid], the IC50 at scNS4A-NS3p is greater than 100 µM; against NS3h_1b, 30 ± 6 µM. In addition, in series [1] (setting [2]), the solubility amounted to 3.7 µM.
Take `Cc1ccc2nc(-c3ccc4nc(-c5ccc(NC(=O)c6ccc7nc(-c8ccc(N)cc8)sc7c6)cc5)sc4c3)sc2c1S(=O)(=O)O` [Compound 35, 2′-(4-(2-(4-aminophenyl)benzo[d]thiazole-6-carboxamido)phenyl)-6-methyl-[2,6′-bibenzo[d]thiazole]-7-sulfonic acid]: the IC50 was 20 µM on scNS4A-NS3p and greater than 200 µM against NS3h_1b.
Consider `Cc1ccc2nc(-c3ccc4nc(-c5ccc(N)cc5)sc4c3)sc2c1S(=O)(=O)O` [Compound P2a, 2′-(4-aminophenyl)-6-methyl-[2,6′-bibenzo[d]thiazole]-7-sulfonic acid], for which the IC50 at scNS4A-NS3p was greater than 100 µM; on NS3h_1b, greater than 200 µM.
For `Cc1ccc2nc(-c3ccc4nc(-c5ccc6nc(-c7ccc8nc(-c9ccc(N)cc9)sc8c7)sc6c5)sc4c3)sc2c1S(=O)(=O)O` [Compound P4, 2′″-(4-aminophenyl)-6-methyl-[2,6′:2″,6′″-quaterbenzo[d]thiazole]-7-sulfonic acid] the same measures were 4.9 µM and 43 ± 10 µM.
